Source: patent US9492368B2, “External preparation for skin” (HAYASHIBARA CO., LTD., priority 2011, dated 2016)

Assay: Solubility in deuterium water
Assay type: physicochemical
Method: For reference, the above nigerosyl adenosine was observed as a minor peak with a retention time of about 22 to 23 min between the elution peak of adenosine and that of 3′-glucosyladenosine other than the elution peaks of 5′- and 3′-glucosyladenosines and adenosine. When the fraction corresponding to such a minor peak was collected and subjected to mass spectrum (MS) analysis in usual manner, it was calculated to have a molecular weight of […] and judged to be a compound composed of two molecules of glucose bound to adenosine. Using the collected fraction and based on the chemical shift (see Table 13) of the carbons and protons of the fraction on MNR analysis under the following conditions, the substance contained in the fraction was identified as 5′-nigerosyladenosine (α-D-glucopyranosyl-(1→3)-α-D-glucopyranosyl-(1→5′)-adenosine; 5′-α-nigerosyladenosine). Since 5′-nigerosyladenosine dissolves in deuterium water in an amount of at least 6 w/v %, it has a higher solubility in aqueous media than 3′-glucosyladenosine. The carbon chemical shifts of adenosine and nigerose were obtained from the spectrum data base of organic compounds opened by The National Institute of Advanced Industrial Science and Technology (AIST) (SDBS; http://riodb01.ibase.aist.go.jp/sdbs/cgi-bin/direct_frame_top.cgi).

Amount that dissolves in deuterium water: at least 6 w/v %
SMILES: Nc1ncnc2c1ncn2[C@@H]1O[C@H](CO[C@H]2O[C@H](CO)[C@@H](O)[C@H](O[C@H]3O[C@H](CO)[C@@H](O)[C@H](O)[C@H]3O)[C@H]2O)[C@@H](O)[C@H]1O [5′-nigerosyladenosine, α-D-glucopyranosyl-(1→3)-α-D-glucopyranosyl-(1→5′)-adenosine]
